# Activity calls are given as the source filed them.
# Tests used:
# Cytochrome P450 1A2 = biological target: T1, Cytochrome P450 1A2 (Homo sapiens, UniProt P05177);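 note: PubChem cytochrome P450 panel assay, CYP1A2 panel member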
# T1 sequence (P05177 whole entry): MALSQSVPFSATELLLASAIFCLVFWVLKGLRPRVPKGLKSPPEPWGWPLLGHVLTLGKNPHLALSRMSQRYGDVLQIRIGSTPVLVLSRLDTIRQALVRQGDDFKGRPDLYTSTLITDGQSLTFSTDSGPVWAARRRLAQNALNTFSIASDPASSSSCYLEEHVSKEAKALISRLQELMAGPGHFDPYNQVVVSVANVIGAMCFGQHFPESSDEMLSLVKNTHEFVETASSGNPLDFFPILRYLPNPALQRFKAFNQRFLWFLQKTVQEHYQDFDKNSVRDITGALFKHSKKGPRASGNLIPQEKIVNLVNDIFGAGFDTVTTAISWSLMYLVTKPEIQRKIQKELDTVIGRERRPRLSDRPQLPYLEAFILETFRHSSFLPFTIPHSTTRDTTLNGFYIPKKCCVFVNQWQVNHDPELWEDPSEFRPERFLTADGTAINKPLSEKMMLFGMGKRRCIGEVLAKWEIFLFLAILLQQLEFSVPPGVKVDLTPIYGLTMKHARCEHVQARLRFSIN
# [1] = Luminescence Cell-Based Dose Retest to Confirm Inhibitors of Cancer Stem Cells. [Related pubchem assays (depositor defined):AID2717, AID2721]; type: functional; details: Homo sapiens
# Cytochrome P450 3A4 = Cytochrome P450 3A4 (Homo sapiens, UniProt P08684);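 note: CYP3A4 tested as one member of a cytochrome P450 panel screen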
# Sequence of Cytochrome P450 3A4 (P08684 whole entry): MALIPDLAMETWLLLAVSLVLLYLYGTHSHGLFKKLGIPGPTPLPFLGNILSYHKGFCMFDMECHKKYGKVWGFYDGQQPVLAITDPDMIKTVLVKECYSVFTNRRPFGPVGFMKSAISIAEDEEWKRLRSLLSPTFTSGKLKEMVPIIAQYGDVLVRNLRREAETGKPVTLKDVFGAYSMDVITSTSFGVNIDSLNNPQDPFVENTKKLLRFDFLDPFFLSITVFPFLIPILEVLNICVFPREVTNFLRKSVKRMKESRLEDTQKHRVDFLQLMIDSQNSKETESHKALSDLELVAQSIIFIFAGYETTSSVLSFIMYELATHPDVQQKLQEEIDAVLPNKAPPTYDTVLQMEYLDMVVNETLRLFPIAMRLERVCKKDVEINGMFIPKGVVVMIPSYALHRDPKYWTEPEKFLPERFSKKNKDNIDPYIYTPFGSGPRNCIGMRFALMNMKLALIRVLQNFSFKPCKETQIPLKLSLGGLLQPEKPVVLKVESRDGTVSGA
# Cytochrome P450 2C9 = Cytochrome P450 2C9 (Homo sapiens, UniProt P11712)
# Sequence of Cytochrome P450 2C9 (P11712 whole entry): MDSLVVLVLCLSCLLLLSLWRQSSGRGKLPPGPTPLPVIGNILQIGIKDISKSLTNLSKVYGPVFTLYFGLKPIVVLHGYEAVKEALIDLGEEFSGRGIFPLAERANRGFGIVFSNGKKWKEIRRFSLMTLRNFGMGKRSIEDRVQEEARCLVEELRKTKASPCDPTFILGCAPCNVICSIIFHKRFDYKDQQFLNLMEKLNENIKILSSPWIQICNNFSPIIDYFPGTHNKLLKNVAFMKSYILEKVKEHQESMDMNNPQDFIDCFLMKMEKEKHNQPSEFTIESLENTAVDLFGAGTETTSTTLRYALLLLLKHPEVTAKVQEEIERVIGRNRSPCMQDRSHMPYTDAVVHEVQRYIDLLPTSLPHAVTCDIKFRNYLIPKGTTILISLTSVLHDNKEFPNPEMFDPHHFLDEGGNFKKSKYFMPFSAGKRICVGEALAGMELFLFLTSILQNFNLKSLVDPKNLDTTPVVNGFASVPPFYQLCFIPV
# Cytochrome P450 2C19 = Cytochrome P450 2C19 (Homo sapiens, UniProt P33261); assay: Cytochrome panel assay with activity outcomes. Panel member name: p450-cyp2c19 Compounds with AC50 equal or less than 10 uM are considered active; type: functional
# Sequence of Cytochrome P450 2C19 (P33261 whole entry): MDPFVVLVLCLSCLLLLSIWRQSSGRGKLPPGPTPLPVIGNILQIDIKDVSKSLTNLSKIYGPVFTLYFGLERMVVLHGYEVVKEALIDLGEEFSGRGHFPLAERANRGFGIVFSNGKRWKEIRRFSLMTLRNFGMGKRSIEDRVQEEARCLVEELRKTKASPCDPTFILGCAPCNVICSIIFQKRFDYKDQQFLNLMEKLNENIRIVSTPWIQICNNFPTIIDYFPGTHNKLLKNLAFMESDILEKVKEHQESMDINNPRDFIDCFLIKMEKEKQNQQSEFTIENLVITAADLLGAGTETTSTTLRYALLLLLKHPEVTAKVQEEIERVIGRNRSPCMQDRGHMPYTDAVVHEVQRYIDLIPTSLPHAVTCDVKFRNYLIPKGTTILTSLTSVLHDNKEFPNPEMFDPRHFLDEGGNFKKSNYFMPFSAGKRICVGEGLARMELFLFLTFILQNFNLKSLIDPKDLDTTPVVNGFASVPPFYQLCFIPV
# Cytochrome P450 2D6 = Cytochrome P450 2D6 (Homo sapiens, UniProt P10635);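 note: CYP2D6 member of a cytochrome P450 panel assay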
# Sequence of Cytochrome P450 2D6 (P10635 whole entry): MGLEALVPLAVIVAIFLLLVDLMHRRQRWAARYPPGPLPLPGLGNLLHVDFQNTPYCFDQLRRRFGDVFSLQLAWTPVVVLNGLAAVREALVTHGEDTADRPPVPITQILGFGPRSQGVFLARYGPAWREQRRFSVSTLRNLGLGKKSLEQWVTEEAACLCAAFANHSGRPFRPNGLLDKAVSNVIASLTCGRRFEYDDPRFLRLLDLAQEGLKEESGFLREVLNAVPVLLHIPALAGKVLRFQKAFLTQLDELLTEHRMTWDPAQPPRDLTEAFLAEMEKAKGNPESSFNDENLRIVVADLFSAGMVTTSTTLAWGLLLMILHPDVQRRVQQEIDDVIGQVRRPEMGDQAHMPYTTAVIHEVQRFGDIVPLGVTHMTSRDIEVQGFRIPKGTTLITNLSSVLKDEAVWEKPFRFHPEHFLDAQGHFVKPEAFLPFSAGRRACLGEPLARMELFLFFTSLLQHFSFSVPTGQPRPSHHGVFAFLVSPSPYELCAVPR
# Streptokinase A = biological target: T2, Streptokinase A (Streptococcus pyogenes serotype M1, UniProt P10520); assay: S. pyogenes streptokinase expression inhibitors, potency, dose response, plasminogen activation absorbance, OD405 (AID 1914); type: functional, Streptococcus pyogenes M1 GAS;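 note: secreted streptokinase activity via plasminogen activation per viability signal from cell pellet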
# T2 sequence (P10520 whole entry): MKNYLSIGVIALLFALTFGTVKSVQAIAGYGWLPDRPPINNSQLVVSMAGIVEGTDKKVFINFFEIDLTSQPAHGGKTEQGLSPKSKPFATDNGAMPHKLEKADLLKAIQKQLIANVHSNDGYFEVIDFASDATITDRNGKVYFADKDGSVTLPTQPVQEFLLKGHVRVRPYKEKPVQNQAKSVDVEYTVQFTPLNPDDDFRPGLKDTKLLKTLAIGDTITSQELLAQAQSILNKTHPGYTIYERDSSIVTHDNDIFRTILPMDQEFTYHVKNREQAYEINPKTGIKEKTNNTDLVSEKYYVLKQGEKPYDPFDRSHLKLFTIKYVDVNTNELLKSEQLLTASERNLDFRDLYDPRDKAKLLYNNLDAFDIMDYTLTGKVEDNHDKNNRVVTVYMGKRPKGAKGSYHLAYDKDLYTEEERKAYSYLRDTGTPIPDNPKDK
# Streptococcus = assay: Group A Streptococcus viability loss, dose response, counter-screen for streptokinase expression inhibitor project, luminescence, BacTiterGlo (AID 1915); type: functional, organism-based;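 note: potency for reduction of bacterial viability or growth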
# [2] = tested on: Streptococcus sp. 'group A'; assay: growth inhibition of control SK(-) GAS strain, dose response, counter-screen for streptokinase expression inhibitor project, luminescence, kanamycin, BacTiterGlo, confirmation (AID 1900); type: functional, organism-based
smiles,measurement,setting,value
N[C@@H](Cn1cc(F)c(=O)[nH]c1=O)C(=O)O,AC50,Cytochrome P450 1A2,31.6 µM (inconclusive)
O=C(c1cnn2c1NC(c1ccc(Br)cc1)CC2C(F)(F)F)N1CCN2CCCC2C1 (stereo not drawn),AC50,[1],1.81 µM (active)
Cn1cc(-c2nc3cncnc3n(Cc3ccccc3Cl)c2=O)c2ccccc21,AC50,Cytochrome P450 1A2,3.16 µM (inconclusive)
same,AC50,Cytochrome P450 3A4,7.94 µM (inconclusive)
CC1CNC(=Nc2cccc3ccccc23)S1 (stereo not drawn),AC50,Cytochrome P450 2C9,14.1 µM (inconclusive)
same,AC50,Cytochrome P450 3A4,15.8 µM (inconclusive)
C=CCn1c(SCc2ccccc2)nc2scc(-c3ccc(C)o3)c2c1=O,AC50,Cytochrome P450 1A2,1.58 µM (inconclusive)
CCCCCC1=C2CNC(CC(C)C)(C(=O)OC)C=C2C(C)C1=O (stereo not drawn),AC50,Cytochrome P450 1A2,25.1 µM (inconclusive)
same,AC50,Cytochrome P450 2C19; read-out: AC50,6.31 µM (inconclusive)
same,AC50,Cytochrome P450 3A4,15.8 µM (inconclusive)
ON(CCc1ccncc1)Cc1ccccc1,AC50,Cytochrome P450 2D6,6.31 µM (inconclusive)
COC(=O)[C@@]1(Cc2ccccc2)[C@H]2c3cc(C(=O)N4CCCC4)n(Cc4nc5ccccc5[nH]4)c3C[C@H]2CN1C(=O)c1ccccc1,AC50,Cytochrome P450 1A2,12.6 µM (inconclusive)
COCC(=O)N1CCC2(CC1)CN(Cc1ccccc1OC)C2,AC50,Cytochrome P450 2C19; read-out: AC50,39.8 µM (inconclusive)
CCOC(=O)N1CCC(NC(=O)C2CCN(S(=O)(=O)N3CCCC3)CC2)CC1,AC50,Cytochrome P450 2C19,inconclusive
Cc1ccc2c(c1)/C(=C1\SC(N(C)c3ccc(O)cc3)=NC1=O)C(=O)N2,EC50,Streptokinase A,> 150 µM (not active)
same,EC50,Streptococcus,16.6 µM (active)
same,EC50,[2],6.59 µM (active)
O=C(Nc1cccc(Cl)c1N1CCCC1)c1cc2ccccc2o1,EC50,Streptokinase A,14.3 µM (active)
same,EC50,Streptococcus,20.5 µM (active)
same,EC50,[2],8.81 µM (active)
CNC(=O)NC(=O)CSc1nnc(-c2ccco2)n1Cc1ccccc1,AC50,Cytochrome P450 2C19; read-out: AC50,35.5 µM (inconclusive)
same,AC50,Cytochrome P450 3A4,22.4 µM (inconclusive)
N=C1/C(=C\c2ccc(OC(=O)c3ccccc3Cl)cc2)C(=O)N=C2SC(N3CCOCC3)=NN12,EC50,Streptokinase A,> 150 µM (not active)
same,EC50,Streptococcus,> 150 µM (not active)
same,EC50,[2],37.8 µM (active)
CC(=O)NCCNc1ncnc2ccc(-c3ccccc3Cl)cc12,AC50,Cytochrome P450 2C19; read-out: AC50,20 µM (inconclusive)
O=C(/C=C\C=C/c1ccc2c(c1)OCO2)N1CCCCC1,AC50,Cytochrome P450 2D6,12.6 µM (inconclusive)
O=C(O)CCSc1ccc([N+](=O)[O-])cc1[N+](=O)[O-],EC50,Streptokinase A,> 150 µM (not active)
same,EC50,Streptococcus,> 150 µM (not active)
CCOc1ccc(NC(=O)N2CCC(C(N)=O)(N3CCCCC3)CC2)cc1,AC50,Cytochrome P450 2C19; read-out: AC50,8.91 µM (inconclusive)
Cc1cc2nc(O)c([C@H](C)C(=O)c3ccc(Cl)cc3)nc2cc1C,AC50,Cytochrome P450 1A2,0.501 µM (inconclusive)
same,AC50,Cytochrome P450 2C19; read-out: AC50,0.0794 µM (inconclusive)
COc1cccc(-c2noc(-c3cccnc3)n2)c1,AC50,Cytochrome P450 2D6,20 µM (inconclusive)
COc1cccc(-c2coc3cc4oc(=O)c(CCC(=O)O)c(C)c4cc23)c1,EC50,Streptokinase A,> 150 µM (not active)
same,EC50,Streptococcus,48.5 µM (active)
same,EC50,[2],5.51 µM (active)
Cc1cc(NC(=O)CSc2nc3ccsc3c(=O)n2Cc2ccccn2)[nH]n1,AC50,Cytochrome P450 1A2,6.31 µM (inconclusive)
O=C1[C@@H]2[C@@H](C(=O)N1c1ccc(OCc3ccccc3)cc1)[C@@H]1c3ccccc3[C@@H]2[n+]2ccccc21,AC50,Cytochrome P450 2D6,3.98 µM (inconclusive)
COc1ccc(Cc2nnc(NC(=O)Cn3cnc4c3c(=O)n(C)c(=O)n4C)s2)cc1OC,AC50,Cytochrome P450 2C19; read-out: AC50,28.2 µM (inconclusive)
same,AC50,Cytochrome P450 2C9,20 µM (inconclusive)
COc1ccccc1C(=O)NNC(=O)C(=O)Nc1cccc(Cl)c1C,EC50,Streptokinase A,> 150 µM (not active)
same,EC50,Streptococcus,16 µM (active)
same,EC50,[2],3.78 µM (active)
COc1ccc(-c2sc3cc(OC)c(OC)cc3c2C#CC2(O)CCCCC2)cc1,AC50,[1],1.73 µM (active)
O=C(/C=C/c1ccc(Br)cc1)NC1CCCCCC1,AC50,Cytochrome P450 1A2,2 µM (inconclusive)
O=C(O)CCCN1C(=O)/C(=C/c2cn(-c3ccccc3)nc2-c2cccs2)SC1=S,EC50,Streptokinase A,> 150 µM (not active)
same,EC50,Streptococcus,7.28 µM (active)
same,EC50,[2],5.9 µM (active)

# Reference: ChEMBL document CHEMBL1201862, “PubChem BioAssay data set” (2004)
